Laboratory results from US10837968B2, “Photoactivatable voltage sensitive dyes” (THE REGENTS OF THE UNIVERSITY OF CALIFORNIA, priority 2014, dated 2020).
Values joined by “and” are separate entries in the source; they are usually repeats but may differ in a detail not shown here. Identical values can stand only once. “Also recorded” adds a separate entry of the source.

Assays:
[1] = test system: human embryonic kidney cells (HEK 293); assay: Cellular fluorescence of SPOT-stained HEK cells pre- and post-UV photoactivation; assay type: cell-based; settings: HEK cells loaded with 200 nM SPOT; 390 nm light for 30 seconds; n=3
Procedure: (§1) FIGS. 1A-1E. Illumination of SPOT dramatically increases fluorescence. Spectroscopic characterization of SPOT in PBS, pH 7. a) Absorbance profile of SPOT before (grey dotted trace) and after (green trace) illumination at 365 nm. The UV-vis spectrum of photoactivated SPOT is identical to a known standard of VF2.1.C1 (black trace). b) Emission spectrum of SPOT before (grey dotted trace) and after illumination (green trace) at 365 nm. c) HEK cells loaded with 200 nM SPOT prior to illumination. d) Cells from c) after illumination with 390 nm light for 30 seconds. e) Quantification of cellular fluorescence from cells stained with SPOT pre- and post-UV photoactivation. Illumination as in panel d) gives a 12-fold increase in fluorescence intensity (n=3).
We next turned our attention to assessing the properties of SPOT in living cells. […] Illumination with 390 nm (30 s) light results in an immediate increase in cell membrane-associated fluorescence characteristic of VoltageFluor staining (FIG. 1D). […] Membrane-associated fluorescence depends on prior UV illumination, as examination of areas of the same sample not exposed to light show very little cellular fluorescence. […] Following illumination, the cells stained with SPOT become bright and voltage-sensitive. […]

[2] = Spectroscopic characterization of SPOT in PBS, pH 7, before and after UV illumination; assay type: physicochemical
Procedure: as §1
FIG. 2. Characterization of SPOT photoproducts.
SPOT is readily available in one step from previously reported VoltageFluor compounds (Miller, et al., Natl Acad Sci USA, 2012, 109:2114). Alkylation of VF2.1.C1 with 2-nitro-4,5-dimethoxybenzylbromide in DMF provides SPOT as an analytically pure sample after purification via HPLC. Larger quantities are available through an alternate route in which the sulfonefluorescein head-group is first alkylated and then coupled to the phenylenevinylene molecular wire to give SPOT. We examined the photophysical behavior and characteristics of SPOT under simulated physiological conditions (PBS, pH 7). […] Emission from SPOT is minimal (FIG. 1B, grey trace), as reflected by its low fluorescence quantum yield. UV illumination of SPOT promptly delivers VF, as measured by complete recovery of absorbance profiles characteristic of VF2.1.C1 (FIG. 1A, green and black traces) and a 25-fold increase in fluorescence emission (FIG. 1B green trace).

COc1cc(COc2cc3oc4cc(=O)c(Cl)cc-4c(-c4ccc(/C=C/c5ccc(/C=C/c6ccc(N(C)C)cc6)cc5)cc4S(=O)(=O)O)c3cc2Cl)c([N+](=O)[O-])cc1OC [SPOT, 2-(2,7-dichloro-6-((4,5-dimethoxy-2-nitrobenzyl)oxy)-3-oxo-3H-xanthen-9-yl)-5-((E)-4-((E)-4-(dimethylamino)styryl)styryl)benzenesulfonic acid]
increase in mean cellular fluorescence intensity following irradiation [1]: 12±1.2 fold and 12 fold
absorbance maximum (λmax / strong absorbance) ([2]; PBS, pH 7, before illumination): 400 nm
fluorescence quantum yield ([2]; PBS, pH 7, before illumination): low
increase in fluorescence emission after UV illumination ([2]; PBS, pH 7, illumination at 365 nm): 25 fold
photoproduct of irradiation (HPLC and mass spectrometry) ([2]; phosphate buffered saline, pH 7.0, 365 nm light): clean conversion of SPOT into VF2.1.C1; also recorded: cleanly gives VF2.1.C1
